The values that follow come from US20060252830A1, “Method for the treatment of magnesium and potassium deficiencies” (priority 2005, published 2006).

Structures are written as SMILES.

Data set [1] concerns patients with atrial fibrillation. The note with it: oral; two 6 month studies; cited from earlier work.
Data set [2] deals with patients receiving sotalol or dofetilide. Kind of data set: Randomized, double-blind, placebo-controlled study: 12-lead ECG intervals in people taking dofetilide or sotalol. The format is in vivo, human. As to the method:
(§1) A randomized, double-blind, placebo-controlled study was performed at Hartford Hospital. People taking dofetilide or sotalol therapy for at least 5 half-lives were eligible for inclusion. […] After enrollment, people who discontinued their sotalol or dofetilide or altered their dosage of these drugs were excluded as well. Thirty-four participants were enrolled in the study. Three were subsequently excluded because the antiarrhythmics they were using were discontinued or the dose of the antiarrhythmics changed during the study. Given the known baseline differences in QTc intervals among men and women, each gender was randomized separately using stratified allocation. Patients completing the study (n=30) were well matched for baseline characteristics, which are reflected in Table 1. Intracellular concentrations of essential elements were available for 19 subjects. Overall 63.2% of patients (regardless of experimental group) had baseline intracellular magnesium concentrations below the normal reference range of 33.9-41.9 mEq/IU with an average level of 32.6±2.2 mEq/IU. All of the other baseline intracellular elements evaluated (phosphorus, chloride, calcium, potassium, and sodium) were within the reference range although the phosphorus was at the top of the range (average=16.7±2.8 mEq/IU with reference range of 14.2-17.0 mEq/IU).
Participants received three tablets of magnesium L-lactate (Mag-Tab SR®; Niche Pharmaceuticals; Roanoke, Tex.) or matching placebo twice daily (504 mg of elemental magnesium daily) for 48 hours (i.e. t=0, 12 h, 24 h, 36 h, and 48 h). A 12-lead electrocardiogram (ECG) was recorded at 25 mm/sec at rest prior to initiation of treatment (i.e. baseline) and at 3 and 51 hours after the first dose of magnesium (i.e. t=3 h and t=51 h) for each participant. A single blinded investigator read all ECGs using a precision ruler of 0.5 mm scale (Schlaedler-Quinzel, Inc. Parsippany, N.J.).
QT intervals were measured from the onset of the Q wave (or R/S wave if there was no Q wave) to the end of the T wave where it merges with the isoelectric baseline. The beginning and end of the QRS complex were determined by visual inspection, whereas the end of the T-wave was obtained by extrapolating the descending slope of the T-wave to the isoelectric baseline. When a U wave interrupts the down-sloping of the T-wave, the visible portion of the T wave was extrapolated to the T-P baseline to define the end of the T-wave. The R-R interval was measured from the peak of one R wave to the peak of an adjacent R wave. The QTc interval was corrected for heart rate using Bazett's formula [QTc=QT/(RR)^1/2].
Continuous data was expressed by a mean±SD. A p value less than 0.05 was considered statistically significant. The primary analysis was the intergroup comparisons of the change in QTc interval from baseline at 3 hours and 51 hours using Bazett's formula. Evaluations of the QRS, QT, and RR intervals were compared between groups at each time period as well. Mann-Whitney tests were used for all statistical analyses of continuous ECG data. Intracellular element intragroup comparisons were performed with a paired t-test. Chi^2 or Fischer's Exact tests were used for categorical comparisons. Statistical analysis was performed using SPSS version 5.

A short description of data set [3]: Intracellular elemental concentrations in sublingual buccal smears (EXAtest, energy-dispersive X-ray analysis). The following applies: p=0.002; all patients below the normal reference range at baseline reached it. The format is in vivo, human. Here is the method:
as §1, with “Patients completing the study (n=30) were well matched for baseline characteristics, which are reflected in Table 1. Intracellular concentrations of essential elements were available for 19 subjects. Overall 63.2% of patients (regardless of experimental group) had baseline intracellular magnesium concentrations below the normal reference range of 33.9-41.9 mEq/IU with an average level of 32.6±2.2 mEq/IU.” left out
Participants received three tablets of magnesium L-lactate (Mag-Tab SR®; Niche Pharmaceuticals; Roanoke, Tex.) or matching placebo twice daily (504 mg of elemental magnesium daily) for 48 hours (i.e. t=0, 12 h, 24 h, 36 h, and 48 h). A 12-lead electrocardiogram (ECG) was recorded at 25 mm/sec at rest prior to initiation of treatment (i.e. baseline) and at 3 and 51 hours after the first dose of magnesium (i.e. t=3 h and t=51 h) for each participant. […]

Take `[Mg+2].[OH-].[OH-]` [magnesium hydroxide]: the maintaining sinus rhythm result in data set [1] is listed as “ineffective”.
In turn, `C[C@H](O)C(=O)[O-].C[C@H](O)C(=O)[O-].O.O.[Mg+2]` [Magnesium L-lactate, magnesium l-lactate dihydrate] yielded a QT interval reduction in data set [2] (3 hours) of 15 ms. Besides, the “reduction in the QTc interval from baseline” value in data set [2] (3 hours, group receiving diuretics) was 51.1 ± 42 ms; in data set [2] (3 hours, no diuretic group), 25.5 ± 27.9 ms; in data set [2] (51 hours, group receiving diuretics), 24.7 ± 24.3 ms; in data set [2] (51 hours, no diuretic group) it was 26.2 ± 27.4 ms. In data set [3], the “change of intracellular magnesium concentrations after magnesium supplementation” value is listed as “rose significantly”.
